From ChEMBL document CHEMBL1130360, “3-[(3-Hydroxymethyl)-4-hydroxybutyl]imidazo[4,5-b]pyridinesnovel antiviral agents” (Bioorg Med Chem Lett, 1997)
≈ marks a conversion by molar mass, not a printed value.

Experiments:
[1] = Selectivity is determined by CC50/EC50 of cytomegalovirus; type: functional
HEL [2] = experiment: Cytotoxicity of compound against herpes simplex virus-2 infected human embryonic lung cells; type: functional
Human alphaherpesvirus 1 [3] = experiment: The compound was tested for the cytopathic effect inhibition against herpes simplex virus 1; Effective concentration required to inhibit 50% virus proliferation; type: functional, organism-based
HEL [4] = experiment: Cytotoxicity of compound against human cytomegalo virus infected human embryonic lung cells; type: functional
[5] = Selectivity is determined by CC50/EC50 of cytopathic effect inhibition against herpes simplex virus 2; type: functional
[6] = Selectivity is determined by CC50/EC50 of VZV virus; type: functional
Human alphaherpesvirus 3 [7] = experiment: The compound was tested for the viral plaque reduction against VZV virus; Effective concentration required to inhibit 50% virus proliferation; type: functional, organism-based
Human betaherpesvirus 5 = experiment: The compound was tested for the cytomegalovirus; Effective concentration required to inhibit 50% virus proliferation; type: functional, organism-based
HEL [8] = experiment: Cytotoxicity of compound against herpes simplex virus 1 infected human embryonic lung cells; type: functional
HEL [9] = experiment: Cytotoxicity of compound against varicella zoster virus infected human embryonic lung cells; type: functional
Human alphaherpesvirus 2 [10] = experiment: (§1) The compound was tested for the cytopathic effect inhibition against herpes simplex virus 2; Effective concentration required to inhibit 50% virus proliferation; type: functional, organism-based
[11] = Selectivity is determined by CC50/EC50 of cytopathic effect inhibition against herpes simplex virus 1; type: functional
Human alphaherpesvirus 3 [12] = experiment: as §1
Human alphaherpesvirus 2 [13] = experiment: The compound was tested for the viral plaque reduction against herpes simplex virus 2; Effective concentration required to inhibit 50% virus proliferation; type: functional, organism-based
HEL [14] = experiment: The compound was tested for the viral plaque reduction against herpes simplex virus 2; Cytotoxicity concentration required to reduce 50% human embryonic lung cells; type: functional
Human alphaherpesvirus 1 [15] = experiment: The compound was tested for the viral plaque reduction against herpes simplex virus 1; Effective concentration required to inhibit 50% virus proliferation; type: functional, organism-based
[16] = Selectivity is determined by CC50/EC50 of viral plaque reduction against herpes simplex virus 2; type: functional
[17] = Selectivity is determined by CC50/EC50 of viral plaque reduction against herpes simplex virus 1; type: functional

**Q.** What does the source list for `OCC(CO)CCn1cnc2cc(Cl)c(Cl)nc21`?
**A.** SI [1]: 0; CC50 (HEL [2]): > 100 µg/mL; EC50 (Human alphaherpesvirus 1 [3]): > 100 µg/mL; CC50 (HEL [4]): > 100 µg/mL; SI [5]: 0; SI [6]: >8.5; EC50 (Human alphaherpesvirus 3 [7]): 11.7 µg/mL (≈ 40.3 µM); EC50 (Human betaherpesvirus 5): > 100 µg/mL; CC50 (HEL [8]): > 100 µg/mL; CC50 (HEL [9]): > 100 µg/mL; EC50 (Human alphaherpesvirus 2 [10]): > 100 µg/mL; SI [11]: 0

**Q.** With `Nc1nc2c(ncn2COCCO)c(=O)[nH]1` [ACYCLOVIR] as the molecule, how does the EC50 (Human alphaherpesvirus 3 [12]) read?
**A.** The EC50 was 0.6 µg/mL (≈ 2.66 µM).

**Q.** And the EC50 (Human alphaherpesvirus 2 [13])?
**A.** Its EC50 is 1.1 µg/mL (≈ 4.88 µM).

**Q.** And the EC50 (Human alphaherpesvirus 2 [10])?
**A.** The EC50 was 0.2 µg/mL (≈ 0.888 µM).

**Q.** With `Nc1nc2c(ncn2COC(CO)CO)c(=O)[nH]1` [GANCICLOVIR] as the molecule, how does the EC50 (Human betaherpesvirus 5) read?
**A.** The EC50 was 0.1 µg/mL (≈ 0.392 µM).

**Q.** Which EC50 (Human betaherpesvirus 5) does the source give for `CC(=O)OCC(CCn1cnc2cc(Cl)c(Cl)nc21)COC(C)=O` here?
**A.** The EC50 was 132 µg/mL (≈ 353 µM).

**Q.** Which SI [1] does the source give for `Nc1nc2c(cc1Cl)nc(C(F)(F)F)n2CCC(CO)CO` here?
**A.** The SI was 0.

**Q.** What about the CC50 (HEL [2]) of the same molecule?
**A.** Its CC50 is over 100 µg/mL.

**Q.** And the EC50 (Human alphaherpesvirus 1 [3])?
**A.** Its EC50 is 1.2 µg/mL (≈ 3.54 µM).

**Q.** And the CC50 (HEL [4])?
**A.** Its CC50 is over 100 µg/mL.

**Q.** What about the SI [5] of the same molecule?
**A.** Its SI is 0.

**Q.** What about the CC50 (HEL [14]) of the same molecule?
**A.** Its CC50 is over 100 µg/mL.

**Q.** And the EC50 (Human alphaherpesvirus 2 [13])?
**A.** The EC50 was over 100 µg/mL.

**Q.** What about the EC50 (Human alphaherpesvirus 1 [15]) of the same molecule?
**A.** The EC50 was over 100 µg/mL.

**Q.** What about the SI [16] of the same molecule?
**A.** The SI was 0.

**Q.** And the EC50 (Human betaherpesvirus 5)?
**A.** Its EC50 is over 100 µg/mL.

**Q.** What about the CC50 (HEL [9]) of the same molecule?
**A.** The CC50 was over 100 µg/mL.

**Q.** And the EC50 (Human alphaherpesvirus 2 [10])?
**A.** Its EC50 is over 100 µg/mL.

**Q.** And the SI [17]?
**A.** Its SI is 0.

**Q.** What about the SI [11] of the same molecule?
**A.** Its SI is over 83.

**Q.** With `OCC(CO)CCn1cnc2nc(Cl)c(Cl)cc21` as the molecule, how does the SI [1] read?
**A.** Its SI is 0.

**Q.** And the CC50 (HEL [2])?
**A.** Its CC50 is over 100 µg/mL.

**Q.** And the EC50 (Human alphaherpesvirus 1 [3])?
**A.** Its EC50 is over 100 µg/mL.

**Q.** What about the CC50 (HEL [4]) of the same molecule?
**A.** Its CC50 is over 100 µg/mL.

**Q.** And the SI [5]?
**A.** The SI was 0.

**Q.** And the SI [6]?
**A.** The SI was over 2.

**Q.** And the EC50 (Human alphaherpesvirus 3 [7])?
**A.** The EC50 was 49.8 µg/mL (≈ 172 µM).

**Q.** What about the EC50 (Human betaherpesvirus 5) of the same molecule?
**A.** The EC50 was over 100 µg/mL.

**Q.** And the CC50 (HEL [9])?
**A.** Its CC50 is over 100 µg/mL.

**Q.** What about the EC50 (Human alphaherpesvirus 2 [10]) of the same molecule?
**A.** The EC50 was over 100 µg/mL.

**Q.** And the SI [11]?
**A.** The SI was 0.
